Experimental data published in patent US4138554A, “7-[D-α-(4-Hydroxy-1,5-naphthyridine-3-carboxamido)-α-phenyl (and p-hydroxyphenyl)acetamido]-3-carbamoyloxymethyl-3-cephem-4-carboxylic acids” (priority 1977, dated 1979).
Where two headings read alike, the source gives them in different places.

Tests used:
Assay type in all cases: cell-based
Pseudomonas sp. = assay: MIC by serial two-fold agar dilution (Mueller-Hinton agar), Pseudomonas sp.; details: Pseudomonas sp. A20358, Table 6
Experimental: (§1) Minimum inhibitory concentrations (MIC) of cephalosporins in the present study were determined by serial two-fold agar dilution method using Steers' apparatus on Mueller-Hinton agar plate against 31 test organisms for the primary screening and also against 61 strains of Pseudomonas aeruginosa for the secondary evaluation.

K. pneumoniae = assay: MIC by serial two-fold agar dilution (Mueller-Hinton agar), K. pneumoniae; details: Klebsiella pneumoniae, K. pneumoniae A9977, Table 6
Experimental: (§2) Minimum inhibitory concentrations (MIC) of BB-S520 were determined by serial two-fold agar dilution method using Steers' apparatus on Meuller-Hinton agar plate against 31 test organisms for the primary screening and also against 61 strains of Pseudomonas aeruginosa for the secondary evaluation. The results are shown in Table 1 and Table 2 along with those of BB-S514 and sulbenicillin.
as §1

S. aureus = assay: MIC by serial two-fold agar dilution (Mueller-Hinton agar), S. aureus; details: Staphylococcus aureus
Experimental: as §2, §1

P. vulgaris = assay: MIC by serial two-fold agar dilution (Mueller-Hinton agar), P. vulgaris; details: Proteus vulgaris; P. vulgaris A9539, Table 6; read-out: MIC
Experimental: as §2, §1

Klebsiella sp. = assay: MIC by serial two-fold agar dilution (Mueller-Hinton agar), Klebsiella sp.; details: Klebsiella sp. A20452, Table 6; read-out: MIC
Experimental: as §2, §1

P. mirabilis = assay: MIC by serial two-fold agar dilution (Mueller-Hinton agar), P. mirabilis; details: Proteus mirabilis; P. mirabilis A9900, Table 6; read-out: MIC
Experimental: as §2, §1

P. aeruginosa = assay: MIC by serial two-fold agar dilution (Mueller-Hinton agar), P. aeruginosa, primary screening
Experimental: as §2, §1

P. morganii = assay: MIC by serial two-fold agar dilution (Mueller-Hinton agar), P. morganii; details: Morganella morganii; P. morganii A9553, Table 6; read-out: MIC
Experimental: as §2, §1

E. cloacae = assay: MIC by serial two-fold agar dilution (Mueller-Hinton agar), E. cloacae; details: Enterobacter cloacae
Experimental: as §2, §1

S. marcescens = assay: MIC by serial two-fold agar dilution (Mueller-Hinton agar), S. marcescens; details: Serratia marcescens; S. marcescens A20019, Table 6; read-out: MIC
Experimental: as §2, §1

S. enteritidis = assay: MIC by serial two-fold agar dilution (Mueller-Hinton agar), S. enteritidis; details: Salmonella enterica; S. enteritidis A9531, Table 6; read-out: MIC
Experimental: as §2, §1

E. coli = assay: MIC by serial two-fold agar dilution (Mueller-Hinton agar), E. coli; details: Escherichia coli, read-out: MIC
Experimental: as §2, §1

Measured: MIC

CC1(C)S[C@@H]2[C@H](NC(=O)C(C(=O)O)c3ccccc3)C(=O)N2[C@H]1C(=O)O (stereo partly shown) [Carbenicillin]
> 100 µg/mL: P. morganii | E. coli; E. coli A20366, Table 6 | E. coli; E. coli A20898, Table 6
1.6 µg/mL: E. coli; E. coli Juhl A15119, Table 6
6.3 µg/mL: Pseudomonas sp. | S. aureus; S. aureus Smith A20240, Table 6, read-out: MIC | Klebsiella sp. | E. coli; E. coli A9435, Table 6
3.1 µg/mL: K. pneumoniae | S. aureus; S. aureus BX-1633 A9606, Table 6, read-out: MIC | S. aureus; S. aureus Smith A20239, Table 6, read-out: MIC | P. vulgaris | E. cloacae; E. cloacae A9656, Table 6 | E. cloacae; E. cloacae A9659, Table 6 | S. marcescens | E. coli; E. coli A20520, Table 6
12.5 µg/mL: P. aeruginosa; P. aeruginosa A20229, Table 6 | P. aeruginosa; Pseudomonas aeruginosa | E. cloacae; E. cloacae A9657, Table 6
0.2 µg/mL: S. aureus; S. aureus Smith A9537, Table 6, read-out: MIC | E. coli; E. coli A9844, Table 6
0.4 µg/mL: P. mirabilis | E. coli; E. coli NIHJ, Table 6
25 µg/mL: S. aureus; S. aureus Smith A15907, Table 6 | S. aureus; S. aureus Smith A20701, Table 6, read-out: MIC | P. aeruginosa; Pseudomonas aeruginosa, P. aeruginosa A9843, Table 6, read-out: MIC | P. aeruginosa; Pseudomonas aeruginosa, P. aeruginosa A9930, Table 6, read-out: MIC
0.8 µg/mL: S. enteritidis | E. coli; E. coli A10664, Table 6
100 µg/mL: P. aeruginosa; Pseudomonas aeruginosa, P. aeruginosa A20717, Table 6, read-out: MIC | E. coli; E. coli A20732, Table 6
